From paper PMC6830221, “Engineering a surrogate human heteromeric α/β glycine receptor orthosteric site exploiting the structural homology and stability of acetylcholine-binding protein” (IUCrJ, 2019)
“And” between values parts separate entries of the source, which are not always exact repeats. Equal values may be shown once. Read-outs that look alike come from different tables or passages of the source.

Columns and labels:
AcAChBP variant II = AcAChBP variant II (Aplysia californica, UniProt Q8WSF8, G162E/I135S/Q74R/T53F/Y110A)
Experimental: (§1) Measurements were recorded using a PerkinElmer LS-55 spectrophotometer with the detector sensitivity set to 750 V. Stock solutions of 10 µg ml^−1 GBP and AcAChBP were prepared, along with two strychnine stock solutions of 100 µM and 1 mM in the same buffer as used for the ITC experiments. The protein samples (2 ml) were excited at a wavelength of 280 nm, and emission was recorded between 300 and 400 nm. For GBP, aliquots of 20 µl of the 1 mM strychnine stock were used, followed by mixing. For AChBP, additions of 2 µl of the 100 µM strychnine stock were made, followed by mixing. Experiments were carried out in triplicate and the percentage change in fluorescence was calculated. Data were analyzed using Microsoft Excel and GraphPad Prism 7.

AcAChBP variant I = AcAChBP variant I (Aplysia californica, UniProt Q8WSF8, I135S/Q74R/T53F/W164F/Y110A)
Experimental: as §1

[1] = molecular target: T1, variant III, glycine-binding protein (GBP) (Aplysia californica, UniProt Q8WSF8, C207G/C208T/G162E/I135S/P209G/Q74R/S206K/T53F/Y110A); test: biochemical
Experimental: (§2) The interaction of strychnine with AcAChBP and GBP was investigated using ITC. Measurements were carried out with a MicroCal PEAQ-ITC (Malvern Panalytical) at 25°C. The protein solutions (10 µM AcAChBP, 40 µM GBP) were prepared by dialysis against buffer (50 mM Tris–HCl pH 7.5, 250 mM NaCl) at 4°C overnight. Strychnine solutions (concentrations of 100 and 500 µM) were prepared in the same buffer. For the experiments, the initial injection of one 0.4 µl aliquot was followed by 17 × 2 µl injections at 3 min intervals. In each case the injection needle acted as a paddle, stirring the cell contents at 750 rev min^−1, and the reference was set at 10 µcal s^−1. Data were analyzed using the software supplied by the manufacturer to calculate K d, ΔH, −TΔS, ΔG and N, which were derived from a one-binding-site model. Control measurements, buffer into buffer, strychnine into buffer and buffer into protein solutions, were used to determine an appropriate offset adjustment. Examples of the data, averaged parameters and standard errors derived from three titrations are presented in Supplementary Fig. S1.

[2] = molecular target: T1, variant III, glycine-binding protein (GBP)
Experimental: (§3) Fluorescence-based screening by differential scanning fluorimetry (DSF; see, for example, Eadsforth et al., 2012[▸]) was used to determine the melting temperature (T m) values. An Mx3005P RT PCR system (Stratagene) was used to monitor protein unfolding by the increase in fluorescence of SYPRO Orange dye (Invitrogen). Assays were carried out in 40 µl volumes with proteins at around 10 µM in 50 mM Tris–HCl, 250 mM NaCl pH 7.5 in 96-well RT PCR plates (ABgene). To investigate the influence of the chemical probe strychnine, 1 µl of strychnine dissolved in DMSO or buffer and then diluted with buffer was incubated with the protein solutions for 5 min prior to 71 cycles of 1°C temperature increments starting at 25°C. After each 1°C increase the sample was excited at 492 nm and fluorescence emission was recorded at 610 nm. The melting temperatures were plotted against a reference control sample of DMSO only. The strychnine concentration varied between […], with a requirement to limit the concentration of DMSO in the final mixture to <2.5%.

[3] = molecular target: T1, variant III, glycine-binding protein (GBP); remark: listed apart in the source
[4] = molecular target: T1, variant III, glycine-binding protein (GBP); test: biochemical; remark: listed apart in the source
Experimental: as §1

AcAChBP [5] = conditions: ref Hansen et al., cited from earlier work
WT AcAChBP [6] = molecular target: T2, WT AcAChBP (Aplysia californica, UniProt Q8WSF8); test: Tryptophan fluorescence-quenching assay; format: binding; design: made in house; host or cells: baculovirus/Sf9
Experimental: as §1

[7] = molecular target: recombinant homomeric GlyR-α3; conditions: ITC, ref Huang et al., 2015; cited from earlier work
WT AcAChBP [8] = molecular target: T2, WT AcAChBP; test: biochemical
Experimental: as §2

[9] = molecular target: AcAChBP variant II (T53F, Q74R, Y110A, I135S, G162E) (Aplysia californica, UniProt Q8WSF8, G162E/I135S/Q74R/T53F/Y110A); conditions: Table S1, Variant-II
Experimental: as §3

[10] = molecular target: AcAChBP variant I (T53F, Q74R, Y110A, I135S, W164F) (Aplysia californica, UniProt Q8WSF8, I135S/Q74R/T53F/W164F/Y110A); conditions: Table S1, Variant-I, biphasic melting
Experimental: as §3

AcAChBP [11] = conditions: ref Brams et al., 2011; cited from earlier work
[12] = molecular target: recombinant homomeric GlyR-α3; conditions: surface plasmon resonance, ref Huang et al., 2015; cited from earlier work
[13] = molecular target: recombinant homomeric GlyR-α1; conditions: radioligand saturation assay, ref Wöhri et al., 2013; cited from earlier work
[14] = molecular target: recombinant homomeric GlyR-α1; conditions: ITC, ref Wöhri et al., 2013; cited from earlier work
[15] = ref Haynes, 2015; cited from earlier work
[16] = binding to AcAChBP, stopped-flow spectrofluorimetry, 2005

T2 sequence (Q8WSF8 entry or part of it): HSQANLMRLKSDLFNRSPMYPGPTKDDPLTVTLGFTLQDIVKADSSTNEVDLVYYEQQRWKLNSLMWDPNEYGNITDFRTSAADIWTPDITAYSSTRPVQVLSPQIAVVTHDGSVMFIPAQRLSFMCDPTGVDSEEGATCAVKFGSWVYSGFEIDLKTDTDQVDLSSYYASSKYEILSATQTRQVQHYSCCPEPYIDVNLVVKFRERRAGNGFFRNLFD
T1 sequence (Q8WSF8 18-236 C207G/C208T/G162E/I135S/P209G/Q74R/S206K/T53F/Y110A limits assumed): as the sequence (Q8WSF8 entry or part of it) above, with T36F, Q57R, Y93A, I118S, G145E, S189K, C190G, C191T, P192G counted along it
Sequence of AcAChBP variant I (T53F, Q74R, Y110A, I135S, W164F) (Q8WSF8 18-236 T53F/Q74R/Y110A/I135S/W164F limits assumed): as the sequence (Q8WSF8 entry or part of it) above, with T36F, Q57R, Y93A, I118S, W147F counted along it
Sequence of AcAChBP variant I (Q8WSF8 18-236 T53F/Q74R/Y110A/I135S/W164F limits assumed): as the sequence (Q8WSF8 entry or part of it) above, with T36F, Q57R, Y93A, I118S, W147F counted along it
Sequence of AcAChBP variant II (Q8WSF8 18-236 T53F/Q74R/Y110A/I135S/G162E limits assumed): as the sequence (Q8WSF8 entry or part of it) above, with T36F, Q57R, Y93A, I118S, G145E counted along it
Sequence of AcAChBP variant II (T53F, Q74R, Y110A, I135S, G162E) (Q8WSF8 18-236 T53F/Q74R/Y110A/I135S/G162E limits assumed): as the sequence (Q8WSF8 entry or part of it) above, with T36F, Q57R, Y93A, I118S, G145E counted along it

## NCC(=O)O [glycine]
AcAChBP variant II
  ligand binding (tryptophan fluorescence): neither did the fluorescence assay register any glycine binding
AcAChBP variant I
  ligand binding (tryptophan fluorescence): neither did the fluorescence assay register any glycine binding
[1]; variant III (GBP)
  association with variant III (ITC): failed to show any binding
[2]; ligand binding to variant III (GBP), DSF
  ΔTm: +2 °C
[3]
  association with variant III (biolayer interferometry): failed to show any binding
[4]; variant III (GBP)
  association with variant III (fluorescence assay): failed to show any binding

## CN1CCC[C@H]1c1cccnc1 [nicotine]
AcAChBP variant II
  ligand binding (tryptophan fluorescence): Neither variant I nor variant II appeared to be able to bind nicotine
AcAChBP variant I
  ligand binding (tryptophan fluorescence): Neither variant I nor variant II appeared to be able to bind nicotine
AcAChBP [5]; [16]
  Kd: 250 nM
WT AcAChBP [6]; binding to WT AcAChBP, tryptophan fluorescence, three titrations, read-out: Kd
  Kd: 245 nM

## O=C1C[C@@H]2OCC=C3CN4CC[C@]56c7ccccc7N1[C@H]5[C@H]2[C@H]3C[C@H]46 [strychnine]
[7]
  Kd: 52 nM
[1]
  Kd: 28800 nM
WT AcAChBP [8]
  Kd: 74.1 nM
[2]; Table S1, Variant-III (GBP)
  ∆Tm (C) + strychnine: +3 C
[9]
  ∆Tm (C) + strychnine: +5 C
[10]; first value
  ∆Tm (C) + strychnine: +5 C
[10]; second value
  ∆Tm (C) + strychnine: +25 C
AcAChBP [11]
  Ki: 38 nM
AcAChBP [5]; AcAChBP, stopped-flow spectrofluorimetry assay, 2004
  Kd: 15 nM
WT AcAChBP [6]
  Kd: 155 nM
[4]; Kd, tryptophan fluorescence, GBP, n=3
  Kd: 26600 nM and 27000 nM
[12]
  Kd: 43 nM
[13]
  Kd: 52 nM
[14]
  Kd: 138 nM
[15]
  pKa: approximately 8.3

## CN1[C@@H]2CC[C@H]1C[C@@H](OC(=O)c1c[nH]c3ccccc13)C2 [tropisetron]
AcAChBP [5]; [16]
  Kd: 480 nM
WT AcAChBP [6]
  Kd: 275 nM
